# Test results: article PMC10046961, “High-Throughput Screening Assay for Detecting Drug-Induced Changes in Synchronized Neuronal Oscillations and Potential Seizure Risk Based on Ca^2+ Fluorescence Measurements in Human Induced Pluripotent Stem Cell (hiPSC)-Derived Neuronal 2D and 3D Cultures” (Cells, 2023)
# Where two headings read alike, the source gives them in different places. Marks after values point to notes of the source that are not given here.
# Key:
# [1] = ref PharmaPendium, cited from earlier work
# [2] = tested on: hiPSC-derived neurons co-cultured with human primary astrocytes in 3D; assay: Ca2+ transient oscillation assay (FDSS), 3D spheroids; type: cell-based; details: for Area under the curve - 3D Mean / Peak Number—3D Mean / Peak amplitude - 3D Mean / Peak width - 3D Mean / Peak-to-peak interval - 3D Mean: 60 min
# Procedure, shortened: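 Fura-2 fluorescence was read twice for 20 min each: a baseline 10 min after 0.04% DMSO, and again 60 min after compound addition at nominal final concentration. The 3D co-cultures (1:1 hiPSC neurons from a donor and human astrocytes, 8000 each) matured 5 weeks in BrainPhys medium after a 1-week differentiation.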
# [3] = tested on: hiPSC-derived neurons co-cultured with human primary astrocytes in 2D; assay: Ca2+ transient oscillation assay (FDSS), 2D co-culture; type: cell-based; details: for activation at 0.37 µM / activation at 1.11 µM / activation at 3.33 µM / activation at 10 µM / activation at 30 µM: Homo sapiens, 1 h, 60 min
# Procedure, shortened: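 Cultures were 10,000 CW50065 hiPSC excitatory neurons plus 2500 primary human astrocytes per well. Recordings used Cal-520 dye in HBSS/HEPES/glucose at 37 °C, with a 470/540 nm read at 2 Hz. Oscillations were stabilized with 0.04% DMSO, read for 20 min, then read again 60 min after compound addition (final DMSO 0.1%).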
# [4] = Table 1, peak plasma concentration in men, free therapeutic Cmax
# [5] = Table 2, highest plasma concentration in humans after the therapeutic dose
# [6] = read-out: Area under the curve - 2D Mean
# [7] = read-out: Peak amplitude - 2D Mean
# [8] = read-out: Peak-to-peak interval - 2D Mean
structure (smiles),measurement,setting,value
"Nc1ccncc1 [4-AP, 4-Aminopyridine]",Free Cmax,[1]; [4],25 to 75 nM
same,Free Cmax,[1]; [5],25 to 75 nM
same,Area under the curve - 3D Mean,[2]; 0.37 µM,53.7 % change from baseline
same,Peak Number—3D Mean,[2]; 0.37 µM,16.7 % change from baseline
same,Peak amplitude - 3D Mean,[2]; 0.37 µM,44.3 % change from baseline
same,Peak width - 3D Mean,[2]; 0.37 µM,2.8 % change from baseline
same,Peak-to-peak interval - 3D Mean,[2]; 0.37 µM,−9.2 % change from baseline
same,Area under the curve - 3D Mean,[2]; 1.11 µM,54.1 % change from baseline
same,Peak Number—3D Mean,[2]; 1.11 µM,62.4 * % change from baseline
same,Peak amplitude - 3D Mean,[2]; 1.11 µM,39.6 % change from baseline
same,Peak width - 3D Mean,[2]; 1.11 µM,7.7 % change from baseline
same,Peak-to-peak interval - 3D Mean,[2]; 1.11 µM,−24.1 % change from baseline
same,Area under the curve - 3D Mean,[2]; 3.33 µM,97.2 % change from baseline
same,Peak Number—3D Mean,[2]; 3.33 µM,24.1 * % change from baseline
same,Peak amplitude - 3D Mean,[2]; 3.33 µM,46.1 % change from baseline
same,Peak width - 3D Mean,[2]; 3.33 µM,35.1 % change from baseline
same,Peak-to-peak interval - 3D Mean,[2]; 3.33 µM,−17.6 % change from baseline
same,Area under the curve - 3D Mean,[2]; 10 µM,72.3 % change from baseline
same,Peak Number—3D Mean,[2]; 10 µM,89.0 ** % change from baseline
same,Peak amplitude - 3D Mean,[2]; 10 µM,42.8 % change from baseline
same,Peak width - 3D Mean,[2]; 10 µM,21.4 % change from baseline
same,Peak-to-peak interval - 3D Mean,[2]; 10 µM,−47.2 % change from baseline
same,response of positive controls on Ca2+ transient oscillations,"[2]; 3D, 4-AP 30 µM, kainic acid 100 µM",significant responses
same,"effect on peak number / Ca2+ neuronal oscillations, in words",[3]; 2D format,significantly increased peak number
same,response of positive controls on Ca2+ transient oscillations,"[3]; 2D, 4-AP 30 µM, kainic acid 100 µM",significant responses
same,change of Ca2+ neuronal oscillations (Figure 1),"[3]; 4-AP at 30 µM, kainic acid at 10 µM",large increases
same,activation at 0.37 µM,[3]; [6],39.5%
same,activation at 0.37 µM,[3]; read-out: Peak Number—2D Mean,9%
same,activation at 0.37 µM,[3]; [7],13.3%
same,activation at 0.37 µM,[3]; read-out: Peak width - 2D Mean,34%
same,activation at 0.37 µM,[3]; [8],-13%
same,activation at 1.11 µM,[3]; [6],18.7%
same,activation at 1.11 µM,[3]; read-out: Peak Number—2D Mean,70.3%
same,activation at 1.11 µM,[3]; [7],7.8%
same,activation at 1.11 µM,[3]; read-out: Peak width - 2D Mean,14.3%
same,activation at 1.11 µM,[3]; [8],-29.8%
same,activation at 3.33 µM,[3]; [6],17.6%
same,activation at 3.33 µM,[3]; read-out: Peak Number—2D Mean,85.8%
same,activation at 3.33 µM,[3]; [7],10.4%
same,activation at 3.33 µM,[3]; read-out: Peak width - 2D Mean,12.6%
same,activation at 3.33 µM,[3]; [8],-42.4%
same,activation at 10 µM,[3]; [6],1.3%
same,activation at 10 µM,[3]; read-out: Peak Number—2D Mean,110%
same,activation at 10 µM,[3]; [7],8.5%
same,activation at 10 µM,[3]; read-out: Peak width - 2D Mean,-6.3%
same,activation at 10 µM,[3]; [8],-49.8%
CC(=O)Nc1ccc(O)cc1 [Acetaminophen],Free Cmax,[1]; [4],460 nM
same,Free Cmax,[1]; [5],460 nM
same,Area under the curve - 3D Mean,[2]; 1.11 µM,104.3 % change from baseline
same,Peak Number—3D Mean,[2]; 1.11 µM,2.2 % change from baseline
same,Peak amplitude - 3D Mean,[2]; 1.11 µM,97.4 % change from baseline
same,Peak width - 3D Mean,[2]; 1.11 µM,0.6 % change from baseline
same,Peak-to-peak interval - 3D Mean,[2]; 1.11 µM,12.7 % change from baseline
same,Area under the curve - 3D Mean,[2]; 3.33 µM,121.7 % change from baseline
same,Peak Number—3D Mean,[2]; 3.33 µM,−3.0 % change from baseline
same,Peak amplitude - 3D Mean,[2]; 3.33 µM,106.4 % change from baseline
same,Peak width - 3D Mean,[2]; 3.33 µM,5.9 % change from baseline
same,Peak-to-peak interval - 3D Mean,[2]; 3.33 µM,17.4 % change from baseline
same,Area under the curve - 3D Mean,[2]; 10 µM,122.4 % change from baseline
same,Peak Number—3D Mean,[2]; 10 µM,12.5 % change from baseline
same,Peak amplitude - 3D Mean,[2]; 10 µM,108.6 % change from baseline
same,Peak width - 3D Mean,[2]; 10 µM,6.3 % change from baseline
same,Peak-to-peak interval - 3D Mean,[2]; 10 µM,−6.2 % change from baseline
same,Area under the curve - 3D Mean,[2]; 30 µM,132.0 % change from baseline
same,Peak Number—3D Mean,[2]; 30 µM,47.2 * % change from baseline
same,Peak amplitude - 3D Mean,[2]; 30 µM,113.9 % change from baseline
same,Peak width - 3D Mean,[2]; 30 µM,9.0 % change from baseline
same,Peak-to-peak interval - 3D Mean,[2]; 30 µM,−8.8 % change from baseline
same,effect on peak count within expected therapeutic exposure levels,[3]; 2D,did not significantly reduce peak count
same,"effect on Ca2+ neuronal oscillations / peak count at 30 µM, in words","[3]; 2D, 30 µM, listed as Paracetamol",did reduce
same,activation at 1.11 µM,[3]; [6],23%
same,activation at 1.11 µM,[3]; read-out: Peak Number—2D Mean,-11.7%
same,activation at 1.11 µM,[3]; [7],8.8%
same,activation at 1.11 µM,[3]; read-out: Peak width - 2D Mean,13%
same,activation at 1.11 µM,[3]; [8],34%
same,activation at 3.33 µM,[3]; [6],35.8%
same,activation at 3.33 µM,[3]; read-out: Peak Number—2D Mean,-25%
same,activation at 3.33 µM,[3]; [7],12.3%
same,activation at 3.33 µM,[3]; read-out: Peak width - 2D Mean,34.3%
same,activation at 3.33 µM,[3]; [8],-35.3%
same,activation at 10 µM,[3]; [6],13.2%
same,activation at 10 µM,[3]; read-out: Peak Number—2D Mean,-18.2%
same,activation at 10 µM,[3]; [7],-0.3%
same,activation at 10 µM,[3]; read-out: Peak width - 2D Mean,16.2%
same,activation at 10 µM,[3]; [8],-14.5%
same,activation at 30 µM,"[3]; 30 µM, read-out: Area under the curve - 2D Mean",-93.2%
same,activation at 30 µM,"[3]; 30 µM, read-out: Peak Number—2D Mean",-94.5%
same,activation at 30 µM,"[3]; 30 µM, read-out: Peak amplitude - 2D Mean",-89.8%
same,activation at 30 µM,"[3]; 30 µM, read-out: Peak width - 2D Mean",-92.5%
same,activation at 30 µM,"[3]; 30 µM, read-out: Peak-to-peak interval - 2D Mean",-100%
